This is an account of results in patent US11285208B2, “Therapeutic agents for pancreatic cancer” (NATIONAL CANCER CENTER, priority 2010, dated 2022).

The subject of assay [1] is progressive/metastatic pancreatic cancer. As to the kind of experiment: Clinical performance of gemcitabine hydrochloride monotherapy in progressive/metastatic pancreatic cancer patients. Type of assay: in vivo, human. An excerpt:
Thus, the tumor reducing effect and ascites eliminating effect observed in one case of combination therapy were not observed with monotherapy.

Assay [2] has as its system pancreatic cancer. The settings on record: first-line therapy, foreign phase III clinical trials; cited from earlier work.

Counter-ions that a name gives are not always drawn.

As for `Nc1ccn([C@@H]2O[C@H](CO)[C@@H](O)C2(F)F)c(=O)n1` [gemcitabine hydrochloride], the “Average change in tumor size (increase)” value in assay [1] (3 months after the start of monotherapy, 25 analyzable cases, 95% confidence interval 4.6-67.4%) is on record as 36.0%. Also, the Ascites elimination result in assay [1] (during the monotherapy of 3 months, 29 analyzable cases) is “ascites was not eliminated”. In assay [2], the “Efficacy in symptom palliation” value is given as 23.8%, the Median survival time is reported as 5.7 months and the One-year survival rate was 18%.
